In brackets after ≈: the same amount, converted by molar mass. One block for each compound: values may come before it.
Legend:
[1] = target: T1, Disintegrin and metalloproteinase domain-containing protein 17 (Homo sapiens, UniProt P78536); assay: Inhibition of recombinant human TACE catalytic domain using Mca-Pro-Leu-Ala-Gln-Ala-Val-Dpa-Arg-Ser-Ser-Ser-Arg-NH2 as substrate after 2 hrs by fluorescence assay
[2] = target: T1, Disintegrin and metalloproteinase domain-containing protein 17; assay: Inhibition of TACE in NHEK assessed as reduction in LPS/TPA-stimulated TNFalpha production preincubated for 1 hr followed by LPS/TPA stimulation for 24 hrs by HTRF assay
[3] = Aqueous solubility of the compound; type: physicochemical
[4] = target: T1, Disintegrin and metalloproteinase domain-containing protein 17; assay: Inhibition of TACE in human PBMC assessed as inhibition of TNFalpha production
[5] = target: T1, Disintegrin and metalloproteinase domain-containing protein 17; assay: Inhibition of TACE (unknown origin)
[6] = target: T1, Disintegrin and metalloproteinase domain-containing protein 17; assay: Inhibition of TACE (unknown origin) by cell based assay
[7] = Stability in human liver microsomes assessed as parent compound remaining at 1 uM after 15 mins by LC-MS/MS analysis; type: ADME, microsome; settings: read-out: Stability
[8] = target: T2, Interstitial collagenase (Homo sapiens, UniProt P03956); assay: Inhibition of recombinant human MMP1 catalytic domain using Mca-Pro-Leu-Gly-Leu-Dpa-Ala-Arg-NH2 as substrate after 10 mins by fluorescence assay
T2 sequence (P03956 whole entry): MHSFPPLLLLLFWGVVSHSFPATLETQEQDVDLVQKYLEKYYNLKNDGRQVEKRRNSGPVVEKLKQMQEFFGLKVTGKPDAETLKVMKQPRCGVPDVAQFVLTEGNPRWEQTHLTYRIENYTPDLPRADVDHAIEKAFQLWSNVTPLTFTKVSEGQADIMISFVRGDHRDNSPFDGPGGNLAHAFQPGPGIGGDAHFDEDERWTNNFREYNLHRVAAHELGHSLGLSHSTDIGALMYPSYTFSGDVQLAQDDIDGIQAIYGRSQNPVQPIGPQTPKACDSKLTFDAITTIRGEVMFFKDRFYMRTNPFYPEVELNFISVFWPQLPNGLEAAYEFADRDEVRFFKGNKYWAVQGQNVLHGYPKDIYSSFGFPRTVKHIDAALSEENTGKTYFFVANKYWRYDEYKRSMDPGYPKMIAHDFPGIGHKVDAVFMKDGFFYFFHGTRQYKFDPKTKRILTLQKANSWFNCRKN

[9] = target: Stromelysin-1 (Homo sapiens, UniProt P08254); assay: Inhibition of MMP3 (unknown origin)
Stromelysin-1, sequence (P08254 whole entry): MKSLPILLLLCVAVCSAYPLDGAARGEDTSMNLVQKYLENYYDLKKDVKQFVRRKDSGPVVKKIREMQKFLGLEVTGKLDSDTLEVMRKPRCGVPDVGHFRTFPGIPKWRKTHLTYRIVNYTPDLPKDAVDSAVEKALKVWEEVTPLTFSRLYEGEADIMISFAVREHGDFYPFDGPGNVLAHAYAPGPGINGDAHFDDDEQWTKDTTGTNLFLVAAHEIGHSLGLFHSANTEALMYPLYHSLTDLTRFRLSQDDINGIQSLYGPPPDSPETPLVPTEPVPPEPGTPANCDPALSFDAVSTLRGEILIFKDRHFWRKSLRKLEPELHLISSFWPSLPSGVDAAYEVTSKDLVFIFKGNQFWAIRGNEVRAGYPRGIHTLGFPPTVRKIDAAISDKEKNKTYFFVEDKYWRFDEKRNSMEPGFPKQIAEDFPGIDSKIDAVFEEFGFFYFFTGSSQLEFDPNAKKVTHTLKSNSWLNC

[10] = target: Matrix metalloproteinase-9 (Homo sapiens, UniProt P14780); assay: Inhibition of MMP9 (unknown origin)
Matrix metalloproteinase-9, sequence (P14780 whole entry): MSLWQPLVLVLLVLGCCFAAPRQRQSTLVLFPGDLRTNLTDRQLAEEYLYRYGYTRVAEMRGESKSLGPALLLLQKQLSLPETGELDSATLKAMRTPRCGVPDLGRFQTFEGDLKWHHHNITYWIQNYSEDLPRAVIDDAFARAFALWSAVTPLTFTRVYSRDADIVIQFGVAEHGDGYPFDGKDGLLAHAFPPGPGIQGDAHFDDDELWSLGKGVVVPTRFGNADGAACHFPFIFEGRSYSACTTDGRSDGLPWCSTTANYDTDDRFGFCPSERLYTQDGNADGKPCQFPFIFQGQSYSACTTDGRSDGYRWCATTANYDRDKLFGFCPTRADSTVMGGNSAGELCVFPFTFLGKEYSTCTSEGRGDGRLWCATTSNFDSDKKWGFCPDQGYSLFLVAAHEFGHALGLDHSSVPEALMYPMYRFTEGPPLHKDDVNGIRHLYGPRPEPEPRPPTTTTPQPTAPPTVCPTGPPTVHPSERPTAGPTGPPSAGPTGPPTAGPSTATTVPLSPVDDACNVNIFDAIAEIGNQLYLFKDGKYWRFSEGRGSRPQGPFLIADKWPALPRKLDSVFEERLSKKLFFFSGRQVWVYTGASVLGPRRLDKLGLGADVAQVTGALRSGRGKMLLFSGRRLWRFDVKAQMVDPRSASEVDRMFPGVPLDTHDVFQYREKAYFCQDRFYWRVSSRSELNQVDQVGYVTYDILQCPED

[11] = target: Macrophage metalloelastase (Homo sapiens, UniProt P39900); assay: Inhibition of MMP12 (unknown origin)
Macrophage metalloelastase, sequence (P39900 whole entry, the tested form may be a part): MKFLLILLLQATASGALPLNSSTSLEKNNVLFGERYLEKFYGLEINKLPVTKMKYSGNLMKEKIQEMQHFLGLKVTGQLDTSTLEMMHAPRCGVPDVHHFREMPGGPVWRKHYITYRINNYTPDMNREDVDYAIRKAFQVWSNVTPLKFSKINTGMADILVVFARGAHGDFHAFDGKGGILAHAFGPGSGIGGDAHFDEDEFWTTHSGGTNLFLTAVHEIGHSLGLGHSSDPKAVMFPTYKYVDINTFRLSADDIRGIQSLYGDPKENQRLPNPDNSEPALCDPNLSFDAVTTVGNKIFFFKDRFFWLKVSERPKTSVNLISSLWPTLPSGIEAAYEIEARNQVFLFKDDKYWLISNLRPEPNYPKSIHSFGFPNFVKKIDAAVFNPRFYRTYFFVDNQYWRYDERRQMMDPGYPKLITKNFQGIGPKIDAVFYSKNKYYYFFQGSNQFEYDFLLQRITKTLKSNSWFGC

[12] = target: T3, Disintegrin and metalloproteinase domain-containing protein 9 (Homo sapiens, UniProt Q13443); assay: Inhibition of ADAM9 (unknown origin)
T3 sequence (Q13443 whole entry): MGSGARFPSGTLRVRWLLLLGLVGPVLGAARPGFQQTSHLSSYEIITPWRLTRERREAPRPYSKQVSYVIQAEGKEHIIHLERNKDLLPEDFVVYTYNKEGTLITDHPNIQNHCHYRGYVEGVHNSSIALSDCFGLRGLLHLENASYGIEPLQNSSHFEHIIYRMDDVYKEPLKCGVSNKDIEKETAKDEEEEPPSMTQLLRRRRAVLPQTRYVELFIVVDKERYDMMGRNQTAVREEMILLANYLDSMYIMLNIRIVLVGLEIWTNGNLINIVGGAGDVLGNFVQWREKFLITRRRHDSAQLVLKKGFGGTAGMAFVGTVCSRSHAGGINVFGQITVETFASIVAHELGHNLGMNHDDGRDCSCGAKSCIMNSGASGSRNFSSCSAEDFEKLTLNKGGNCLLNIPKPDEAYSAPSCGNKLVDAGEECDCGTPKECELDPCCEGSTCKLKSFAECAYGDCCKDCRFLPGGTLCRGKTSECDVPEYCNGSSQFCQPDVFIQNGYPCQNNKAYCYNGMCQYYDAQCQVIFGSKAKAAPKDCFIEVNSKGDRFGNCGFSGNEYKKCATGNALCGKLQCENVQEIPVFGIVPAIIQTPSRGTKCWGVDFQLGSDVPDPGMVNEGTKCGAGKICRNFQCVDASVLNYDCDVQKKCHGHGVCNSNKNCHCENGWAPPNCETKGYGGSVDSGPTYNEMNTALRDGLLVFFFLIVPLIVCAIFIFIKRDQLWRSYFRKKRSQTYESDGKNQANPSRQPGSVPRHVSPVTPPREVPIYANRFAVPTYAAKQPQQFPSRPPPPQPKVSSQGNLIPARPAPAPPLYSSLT

[13] = target: T4, Disintegrin and metalloproteinase domain-containing protein 10 (Homo sapiens, UniProt O14672); assay: Inhibition of ADAM10 (unknown origin)
T4 sequence (O14672 whole entry): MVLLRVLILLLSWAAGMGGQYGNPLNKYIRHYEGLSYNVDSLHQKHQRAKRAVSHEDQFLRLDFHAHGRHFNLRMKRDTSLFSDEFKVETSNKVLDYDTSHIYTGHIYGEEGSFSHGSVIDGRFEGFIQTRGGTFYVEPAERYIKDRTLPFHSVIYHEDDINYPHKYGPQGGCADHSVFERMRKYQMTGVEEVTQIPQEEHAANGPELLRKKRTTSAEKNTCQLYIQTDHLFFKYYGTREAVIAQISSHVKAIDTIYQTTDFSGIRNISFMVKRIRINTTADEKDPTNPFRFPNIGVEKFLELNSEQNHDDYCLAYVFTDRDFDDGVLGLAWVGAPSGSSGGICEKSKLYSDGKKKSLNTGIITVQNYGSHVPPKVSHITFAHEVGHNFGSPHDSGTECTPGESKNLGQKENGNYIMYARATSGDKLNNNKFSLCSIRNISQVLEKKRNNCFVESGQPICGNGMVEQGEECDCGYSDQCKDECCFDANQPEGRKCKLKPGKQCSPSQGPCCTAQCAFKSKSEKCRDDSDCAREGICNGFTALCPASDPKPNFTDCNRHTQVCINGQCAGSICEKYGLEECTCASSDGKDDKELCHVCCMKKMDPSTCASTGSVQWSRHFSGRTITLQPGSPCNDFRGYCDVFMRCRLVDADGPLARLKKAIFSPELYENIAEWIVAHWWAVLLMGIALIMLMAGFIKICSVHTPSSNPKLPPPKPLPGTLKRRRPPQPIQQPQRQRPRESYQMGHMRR

[14] = Fraction unbound in human plasma at 5 uM after 4 hrs by LC-MS/MS based equilibrium dialysis method; type: ADME, cell-free
[15] = Intrinsic clearance in human hepatocytes assessed per million cells at 1 uM up to 90 mins by LC-MS/MS analysis; type: ADME, cell-based, Hepatocyte; settings: read-out: CLH
[16] = Half life in human keratinocytes at 1 uM by LC-MS/MS analysis; type: ADME, cell-based, Keratinocyte
[17] = Solubility of the compound in PG/EtOH96; type: physicochemical
[18] = Photoirritancy factor, ratio of EC50 for human neonatal keratinocytes under dark condition to EC50 for human neonatal keratinocytes under 5 J/cm2 UV light exposure; parameters: species or system Neonatal keratinocyte

T1 sequence (P78536 whole entry, the tested form may be a part): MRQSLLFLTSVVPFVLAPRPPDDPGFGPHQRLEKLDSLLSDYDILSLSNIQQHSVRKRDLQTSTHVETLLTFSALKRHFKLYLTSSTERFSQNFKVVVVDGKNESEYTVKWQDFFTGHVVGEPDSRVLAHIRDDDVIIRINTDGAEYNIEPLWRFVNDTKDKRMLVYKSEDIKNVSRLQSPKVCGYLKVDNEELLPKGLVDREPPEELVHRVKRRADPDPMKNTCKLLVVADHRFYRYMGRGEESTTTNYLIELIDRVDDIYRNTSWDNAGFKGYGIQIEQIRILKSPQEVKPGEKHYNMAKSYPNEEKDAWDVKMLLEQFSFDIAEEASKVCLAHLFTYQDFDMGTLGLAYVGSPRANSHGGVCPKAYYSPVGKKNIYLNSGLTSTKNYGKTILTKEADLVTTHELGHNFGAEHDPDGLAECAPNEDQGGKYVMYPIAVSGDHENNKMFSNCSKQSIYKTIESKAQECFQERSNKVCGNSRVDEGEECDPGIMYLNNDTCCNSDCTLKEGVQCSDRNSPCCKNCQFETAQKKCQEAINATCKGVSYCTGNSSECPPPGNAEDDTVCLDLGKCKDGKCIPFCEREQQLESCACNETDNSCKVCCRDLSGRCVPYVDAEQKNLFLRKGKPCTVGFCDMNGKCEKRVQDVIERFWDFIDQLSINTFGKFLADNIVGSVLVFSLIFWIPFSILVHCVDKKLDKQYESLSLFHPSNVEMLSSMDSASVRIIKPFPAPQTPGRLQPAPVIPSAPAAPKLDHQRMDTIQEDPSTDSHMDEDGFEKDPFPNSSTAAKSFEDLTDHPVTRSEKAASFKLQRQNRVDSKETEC

- IC50 [1]: 4 nM
- IC50 [2]: 120 nM
- solubility [3]: 90 µM (≈ 37.3 µg/mL)
- IC50 [4]: 158 nM
SMILES: CC1(C)SCCN(S(=O)(=O)c2ccc(OCC#CCO)cc2)[C@H]1C(=O)NO

- IC50 [5]: 79.4 nM
- IC50 ([6]; read-out: pIC50 (converted)): 15800 nM
SMILES: COCCOc1cc(CCC[C@H]2C(=O)N[C@H](C(=O)c3ccccc3)Cc3ccc(cc3)OCCCC[C@@H]2C(=O)NO)cc(OC)c1

- IC50 [1]: 12 nM
- remaining at […], 1 µM [7]: 47%
- IC50 [8]: > 10000 nM
- IC50 [9]: > 10000 nM
- IC50 [10]: > 10000 nM
- IC50 [11]: 930 nM
- IC50 [12]: > 10000 nM
- IC50 [13]: > 10000 nM
- IC50 [2]: 1300 nM
- fraction unbound at 4 h, 5 µM [14]: 0.03
- hepatocyte CLint at […], 1 µM [15]: 14 µL/min/1e6 cells
- half-life at 1 µM [16]: > 24 h
- solubility [3]: 20 µM (≈ 10.9 µg/mL)
- solubility [17]: > 55 µM
SMILES: Cc1cc(COc2ccc(S(=O)(=O)N3CCN(C(=O)C(C)(C)C)C(C(=O)NO)C3)cc2)c2c(n1)CCCC2 (stereo not drawn)
- Ratio EC50 [18]: 1

- IC50 [5]: 79.4 nM
- IC50 ([6]; read-out: IC50): 5000 nM
SMILES: O=C(c1ccccc1)[C@@H]1Cc2ccc(cc2)OCCCC[C@H](C(=O)NO)[C@@H](CCCc2cc(Br)cc(Br)c2)C(=O)N1
